Numbers after ± are expanded uncertainties.
Details: 101.33 kPa, Liquid, Vibrating wire viscometry

CC(C)CCCCCCCOC(=O)c1ccccc1C(=O)OCCCCCCCC(C)C
Details | viscosity [mPa·s]
283.03 K | 264.88 ± 8.6
288.23 K | 176.35 ± 4.9
288.36 K | 173.92 ± 4.9
293.23 K | 122.34 ± 2.6
293.93 K | 116.51 ± 2.4
298.13 K | 87.76 ± 1.6
298.58 K | 85.3 ± 1.5
303.18 K | 64.51 ± 1.1
303.5 K | 63.25 ± 1
